Each block holds one compound with its values, some of them ahead of it.
Assays:
K562 [1] = test: In vitro inhibitory activity against K562 human leukemia cell line; type: functional, cell-based
K562 [2] = test: Effect on cell cycle distribution of K562 cells following treatment of 10 x IC50 for 16 hours and c.v. value was reported.; type: functional, Homo sapiens
K562 [3] = test: Effect on cell cycle distribution of K562 cells following treatment of 10 x IC50 for 16 hours and percentage of cells in G2/M phase was reported.; type: functional, Homo sapiens
K562 [4] = test: Evaluated for the effect on cell cycle distribution of K562 cells following treatment of 10 x IC50 for 16 hours and percentage of cells in G1 phase was reported.; type: functional, Homo sapiens
K562 [5] = test: Effect on cell cycle distribution of K562 cells following treatment of 10 x IC50 for 16 hours and percentage of cells in S phase was reported.; type: functional, Homo sapiens
K562 [6] = test: Effect on cell cycle distribution of K562 cells following treatment of 10 x IC50 for 16 hours and percentage of apoptotic cells (cells with DNA content less than cells in G1 phase) was reported.; type: functional, Homo sapiens
P388 = test: Inhibitory activity against P388 mouse leukemia cell line; type: functional; details: read-out: ID50 (the source's name)
[7] = Inhibitory activity against FF1 normal skin cells; type: functional; details: Homo sapiens, read-out: ID50 (the source's name)
A549 = test: Inhibitory activity against A549 lung cancer cell line; type: functional; details: Homo sapiens, read-out: ID50 (the source's name)
K562 [8] = test: Inhibitory activity against K562 human leukemia cell line; type: functional; details: read-out: ID50 (the source's name)
WiDr = test: Inhibitory activity against WiDR colon adenocarcinoma cell line; type: functional; details: Homo sapiens, read-out: ID50 (the source's name)
MCF7 = test: Inhibitory activity against MCF-7 breast cancer cell line; type: functional; details: Homo sapiens, read-out: ID50 (the source's name)
COLO = test: Inhibitory activity against COLO skin melanoma cell line; type: functional; details: Homo sapiens, read-out: ID50 (the source's name)
NCI-H460 = test: Inhibitory activity against H460 lung cancer cell line; type: functional; details: Homo sapiens, read-out: ID50 (the source's name)
BT-20 = test: Inhibitory activity against BT20 breast cancer cell line; type: functional; details: Homo sapiens, read-out: ID50 (the source's name)
NCI-H520 = test: Inhibitory activity against H520 lung cancer cell line; type: functional; details: Homo sapiens, read-out: ID50 (the source's name)

SMILES: C=C1CCC[C@]2(C)C[C@H]3OC(=O)[C@@H](CN(C)CCO)[C@H]3C[C@@H]12
IC50 (K562 [1]): 4000 nM

SMILES: C=C1CCC[C@]2(C)C[C@H]3OC(=O)[C@@H](CN(CCC)CCC)[C@H]3C[C@@H]12
IC50 (K562 [1]): 5000 nM

SMILES: C=C1CCC[C@]2(C)C[C@H]3OC(=O)[C@@H](CNC)[C@H]3C[C@@H]12
IC50 (K562 [1]): 24000 nM

SMILES: C=C1CCC[C@]2(C)C[C@H]3OC(=O)[C@@H](CN4CCCC4)[C@H]3C[C@@H]12
IC50 (K562 [1]): 5000 nM

SMILES: C=C1CCC[C@]2(C)C[C@H]3OC(=O)[C@@H](CN4CCOCC4)[C@H]3C[C@@H]12
IC50 (K562 [1]): 5000 nM

SMILES: C=C1CCC[C@]2(C)C[C@H]3OC(=O)[C@@H](CN4CCCCC4)[C@H]3C[C@@H]12
IC50 (K562 [1]): 5000 nM

SMILES: C=C1CCC[C@]2(C)C[C@H]3OC(=O)[C@@H](CNCCCN(C)C)[C@H]3C[C@@H]12
IC50 (K562 [1]): 6000 nM

SMILES: C=C1CCC[C@]2(C)C[C@H]3OC(=O)[C@@H](CNCc4ccccc4)[C@H]3C[C@@H]12
IC50 (K562 [1]): 15000 nM

Now those with a lower IC50 (K562 [1]), led by results:

IC50 (K562 [1]): 2000 nM
SMILES: C[C@H]1CCC[C@]2(C)C[C@H]3OC(=O)[C@@H](CN(C)C)[C@H]3C=C12

IC50 (K562 [1]): 700 nM
SMILES: C=C1C(=O)O[C@@H]2C[C@@]3(C)CCC[C@H](C)C3=C[C@H]12 [HELENINE]
c.v (K562 [2]): 3.4
G2/M (K562 [3]): 17%
growth inhibition (GI) (K562 [4]): 30%
S (K562 [5]): 53%
Activity (K562 [6]): 9.9%

IC50 (K562 [1]): 3000 nM
SMILES: C=C1CCC[C@]2(C)C[C@H]3OC(=O)[C@@H](CN(C)C)[C@H]3C[C@@H]12

IC50 (K562 [1]): 3000 nM
SMILES: C=C1CCC[C@]2(C)C[C@H]3OC(=O)[C@@H](CN(C)C(C)C(O)c4ccccc4)[C@H]3C[C@@H]12 (stereo partly specified)

IC50 (K562 [1]): 2000 nM
SMILES: C[C@H]1CCC[C@]2(C)C[C@H]3OC(=O)[C@@H](CN4CCCCC4)[C@H]3C=C12

IC50 (P388): 400 nM
IC50 (A549): 600 nM
IC50 (K562 [8]): 1200 nM
IC50 (WiDr): 1400 nM
IC50 (MCF7): 600 nM
IC50 (COLO): 2100 nM
IC50 (NCI-H460): 600 nM
IC50 (K562 [1]): 1200 nM
IC50 (BT-20): 1200 nM
IC50 (NCI-H520): 900 nM
SMILES: C=C1C(=O)O[C@@H]2C[C@@]3(C)CCCC(=C)[C@@H]3C[C@H]12 [ISOALANTOLACTONE]
IC50 [7]: 1100 nM
c.v (K562 [2]): 3.2
G2/M (K562 [3]): 12%
growth inhibition (GI) (K562 [4]): 38%
S (K562 [5]): 50%
Activity (K562 [6]): 8.2%

IC50 (K562 [1]): 700 nM
SMILES: CCN(CC)C[C@@H]1C(=O)O[C@@H]2C[C@@]3(C)CCC[C@H](C)C3=C[C@H]12
c.v (K562 [2]): 7
G2/M (K562 [3]): 10%
G1 (K562 [4]): 38%
S (K562 [5]): 52%
Activity (K562 [6]): 7.3%

IC50 (P388): 300 nM
IC50 (A549): 800 nM
IC50 (K562 [8]): 2000 nM
IC50 (WiDr): 1500 nM
IC50 (MCF7): 800 nM
IC50 (COLO): 3500 nM
IC50 (NCI-H460): 600 nM
IC50 (K562 [1]): 2000 nM
IC50 (BT-20): 1200 nM
IC50 (NCI-H520): 900 nM
SMILES: C=C1CCC[C@]2(C)C[C@H]3OC(=O)[C@@H](CN(CC)CC)[C@H]3C[C@@H]12
IC50 [7]: 1000 nM
c.v (K562 [2]): 4.3
G2/M (K562 [3]): 10%
G1 (K562 [4]): 39%
S (K562 [5]): 52%
Activity (K562 [6]): 4.4%
